Converted amounts (≈) assume the structure as drawn. The source made the active and inactive calls. The rule behind the calls is not given here.
How the values were obtained:
[1] = test system: Mycobacterium tuberculosis; assay: Antimycobacterial activity against Mycobacterium bovis BCG after 14 days by inverted microscopic analysis; assay type: functional; conditions: variant bovis BCG, 336 h
[2] = test system: Mycobacterium tuberculosis; assay: Antimycobacterial activity against Mycobacterium bovis BCG assessed as effect on membrane topology by atomic force microscopic analysis; assay type: functional, organism-based; conditions: variant bovis BCG
[3] = test system: Mycobacterium tuberculosis; assay: Antimycobacterial activity against Mycobacterium bovis BCG assessed as effect on membrane morphology by atomic force microscopic analysis; assay type: functional, organism-based; conditions: variant bovis BCG
[4] = test system: Mycobacterium tuberculosis; assay: Antimycobacterial activity against Mycobacterium bovis BCG assessed as pore and grove formation by atomic force microscopic analysis; assay type: functional, organism-based; conditions: variant bovis BCG
[5] = test system: Mycobacterium tuberculosis; assay: Antimycobacterial activity against Mycobacterium bovis BCG assessed as rugged membrane surface by atomic force microscopic analysis; assay type: functional, organism-based; conditions: variant bovis BCG
[6] = test system: Mycobacterium tuberculosis; assay: Antimycobacterial activity against Mycobacterium bovis BCG after 14 days by inverted microscopic analysis in presence of plasma; assay type: functional; conditions: variant bovis BCG, 336 h

## COC(=O)CC[C@@H](C)[C@H]1CC[C@H]2[C@@H]3CC[C@@H]4C[C@H](OC(=O)C[n+]5ccccc5)CC[C@]4(C)[C@H]3CC[C@]12C
[1]
  MIC99: > 50 µM

## COC(=O)CC[C@@H](C)[C@H]1CC[C@H]2[C@@H]3CC[C@@H]4C[C@H](OC(=O)C[N+]5(C)CCCCC5)CC[C@]4(C)[C@H]3C[C@H](OC(=O)C[N+]3(C)CCCCC3)[C@]12C
[1]
  MIC99: 3.12 µM

## C[C@H]1COc2c(N3CCN(C)CC3)c(F)cc3c(=O)c(C(=O)O)cn1c23 [LEVOFLOXACIN]
[1]
  MIC99: 0.39 µM (≈ 0.141 µg/mL)

## COC(=O)CC[C@@H](C)[C@H]1CC[C@H]2[C@@H]3[C@H](OC(=O)C[n+]4ccccc4)C[C@@H]4C[C@H](OC(=O)C[n+]5ccccc5)CC[C@]4(C)[C@H]3CC[C@]12C
[1]
  MIC99: 9.38 µM

## COC(=O)CC[C@@H](C)[C@H]1CC[C@H]2[C@@H]3CC[C@@H]4C[C@H](OC(=O)CN)CC[C@]4(C)[C@H]3CC[C@]12C
[1]
  MIC99: > 50 µM

## COC(=O)CC[C@@H](C)[C@H]1CC[C@H]2[C@@H]3[C@H](OC(=O)CN)C[C@@H]4C[C@H](OC(=O)CN)CC[C@]4(C)[C@H]3C[C@H](OC(=O)CN)[C@]12C.Cl.Cl.Cl
[2]
  Activity: inactive
[3]
  Activity: inactive
[1]
  MIC99: 18.8 µM

## COC(=O)CC[C@@H](C)[C@H]1CC[C@H]2[C@@H]3[C@H](OC(=O)C[N+]4(C)CCCCC4)C[C@@H]4C[C@H](OC(=O)C[N+]5(C)CCCCC5)CC[C@]4(C)[C@H]3C[C@H](OC(=O)C[N+]3(C)CCCCC3)[C@]12C.[Cl-].[Cl-].[Cl-]
[1]
  MIC99: 6.25 µM

## COC(=O)CC[C@@H](C)[C@H]1CC[C@H]2[C@@H]3CC[C@@H]4C[C@H](OC(=O)C[N+](C)(C)C)CC[C@]4(C)[C@H]3CC[C@]12C
[1]
  MIC99: 50 µM

## COC(=O)CC[C@@H](C)[C@H]1CC[C@H]2[C@@H]3[C@H](OC(=O)C[n+]4ccc(N(C)C)cc4)C[C@@H]4C[C@H](OC(=O)C[n+]5ccc(N(C)C)cc5)CC[C@]4(C)[C@H]3C[C@H](OC(=O)C[n+]3ccc(N(C)C)cc3)[C@]12C.[Cl-].[Cl-].[Cl-]
[4]
  Activity: Active
[5]
  Activity: Active
[6]
  MIC99: 6.25 µM
[1]
  MIC99: 3.12 µM

## COC(=O)CC[C@@H](C)[C@H]1CC[C@H]2[C@@H]3[C@H](OC(=O)C[N+]4(C)CCCCC4)C[C@@H]4C[C@H](OC(=O)C[N+]5(C)CCCCC5)CC[C@]4(C)[C@H]3CC[C@]12C
[1]
  MIC99: 6.25 µM

## COC(=O)CC[C@@H](C)[C@H]1CC[C@H]2[C@@H]3CC[C@@H]4C[C@H](OC(=O)CN)CC[C@]4(C)[C@H]3C[C@H](OC(=O)CN)[C@]12C
[1]
  MIC99: 25 µM (≈ 13 µg/mL)

## COC(=O)CC[C@@H](C)[C@H]1CC[C@H]2[C@@H]3[C@H](OC(=O)C[n+]4ccc(N(C)C)cc4)C[C@@H]4C[C@H](OC(=O)C[n+]5ccc(N(C)C)cc5)CC[C@]4(C)[C@H]3CC[C@]12C
[1]
  MIC99: 3.12 µM

## COC(=O)CC[C@@H](C)[C@H]1CC[C@H]2[C@@H]3[C@H](OC(=O)C[N+](C)(C)C)C[C@@H]4C[C@H](OC(=O)C[N+](C)(C)C)CC[C@]4(C)[C@H]3C[C@H](OC(=O)C[N+](C)(C)C)[C@]12C.[Cl-].[Cl-].[Cl-]
[1]
  MIC99: 6.25 µM

## COC(=O)CC[C@@H](C)[C@H]1CC[C@H]2[C@@H]3[C@H](OC(=O)C[N+](C)(C)C)C[C@@H]4C[C@H](OC(=O)C[N+](C)(C)C)CC[C@]4(C)[C@H]3CC[C@]12C
[1]
  MIC99: 4.68 µM

## NNC(=O)c1ccncc1 [ISONIAZID]
[1]
  MIC99: 0.78 µM (≈ 0.107 µg/mL)

## COC(=O)CC[C@@H](C)[C@H]1CC[C@H]2[C@@H]3[C@H](OC(=O)CN)C[C@@H]4C[C@H](OC(=O)CN)CC[C@]4(C)[C@H]3CC[C@]12C
[1]
  MIC99: 37.5 µM (≈ 19.5 µg/mL)

## COC(=O)CC[C@@H](C)[C@H]1CC[C@H]2[C@@H]3[C@H](OC(=O)C[n+]4ccccc4)C[C@@H]4C[C@H](OC(=O)C[n+]5ccccc5)CC[C@]4(C)[C@H]3C[C@H](OC(=O)C[n+]3ccccc3)[C@]12C.[Cl-].[Cl-].[Cl-]
[1]
  MIC99: 6.25 µM

## COC(=O)CC[C@@H](C)[C@H]1CC[C@H]2[C@@H]3CC[C@@H]4C[C@H](OC(=O)C[n+]5ccccc5)CC[C@]4(C)[C@H]3C[C@H](OC(=O)C[n+]3ccccc3)[C@]12C
[1]
  MIC99: 6.25 µM

## COC(=O)CC[C@@H](C)[C@H]1CC[C@H]2[C@@H]3CC[C@@H]4C[C@H](OC(=O)C[n+]5ccc(N(C)C)cc5)CC[C@]4(C)[C@H]3CC[C@]12C
[1]
  MIC99: 50 µM

## COC(=O)CC[C@@H](C)[C@H]1CC[C@H]2[C@@H]3CC[C@@H]4C[C@H](OC(=O)C[N+](C)(C)C)CC[C@]4(C)[C@H]3C[C@H](OC(=O)C[N+](C)(C)C)[C@]12C
[1]
  MIC99: 25 µM

## COC(=O)CC[C@@H](C)[C@H]1CC[C@H]2[C@@H]3CC[C@@H]4C[C@H](OC(=O)C[N+]5(C)CCCCC5)CC[C@]4(C)[C@H]3CC[C@]12C
[1]
  MIC99: 50 µM

## COC(=O)CC[C@@H](C)[C@H]1CC[C@H]2[C@@H]3CC[C@@H]4C[C@H](OC(=O)C[n+]5ccc(N(C)C)cc5)CC[C@]4(C)[C@H]3C[C@H](OC(=O)C[n+]3ccc(N(C)C)cc3)[C@]12C
[1]
  MIC99: 2.34 µM
